From patent US7906675B2, “Compounds for the treatment of metabolic disorders” (Wellstat Therapeutics Corporation, priority 2003, dated 2011)

System: C57BL/Ksola (db/db) mice
Assay: Antidiabetic effects in db/db diabetic mouse model
Type: in vivo
Conditions: serum, 60 mg/kg daily oral for 17 days
Excerpt: C57BL/Ksola (db/db) mice have a defect in leptin signaling, leading to hyperphagia, obesity, hypertriglyceridemia, and diabetes. Moreover, unlike ob/ob mice on a C57BL/6J background, db/db mice on a C57BLKS background undergo failure of their insulin-producing pancreatic islet cells, resulting in progression from hyperinsulinemia (associated with peripheral insulin resistance) to hypoinsulinemic diabetes.
Male obese (db/db homozygote) C57BL/Ksola mice approximately 8 weeks of age, were obtained from Jackson Labs (Bar Harbor, Me.) and sorted into groups of 7 animals each animals such that the body weights (40-45 g) and serum glucose levels (≧300 mg/dl in fed state) were similar between groups. A minimum of 7 days was allowed for adaptation after arrival. All animals were maintained under controlled temperature (23° C.), relative humidity (50±5%) and light (7:00-19:00), and allowed free access to standard chow (Formulab Diet 5008, Quality Lab Products, Elkridge, Md.) and water.
Groups of mice received daily oral doses of vehicle (1% hydroxypropylmethylcellulose) or Compound CS (60 mg/kg) for 17 days. At the end of the treatment period, blood samples were collected and serum glucose, triglycerides, and free fatty acids were measured.

Cc1cccc(C)c1CSc1ccc(C(=O)CCC(=O)O)cc1 [Compound CS, 4-(4-[(2,6-Dimethylbenzyl)-thio]-phenyl)-4-oxobutyric acid]
Free Fatty Acids: 2034 ± 195 µM
Triglycerides: 150 ± 10 mg/dL
Glucose (±SEM): 593 ± 77 mg/dL
